# Measured values from PubChem BioAssay AID1845195 (Molecular Pharmacology Branch, DTP, NCI, 2023).
# Tested on: 156681-154-R-J1 tumor spheroid viability
# Test: Anticancer human tumor 156681-154-R-J1 patient-derived melanoma cell line growth inhibition
# Settings: spheroids with HUVEC and MSC; for IC50: curve of first compound; for viability, T/C: stronger effect = lower value
# Summary of the method: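 Complex tumor spheroids combined malignant cells with endothelial cells and mesenchymal stem cells. DNA-damaging drugs and DNA repair inhibitors were tested alone and in combination, at half-log dilutions down from clinical Cmax (top 10 microM if Cmax unknown), 0.25% DMSO final.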
# [1] = second compound 0.003 µM, first compound 0.0316 µM
# [2] = second compound 0.003 µM, first compound 0.1 µM
# [3] = second compound 0.003 µM, first compound 0.316 µM
# [4] = second compound 0.003 µM, first compound 1 µM
# [5] = second compound 0.003 µM, first compound 3.16 µM
# [6] = second compound 0.003 µM, first compound 10 µM
# [7] = second compound 0.00949 µM, first compound 0.0316 µM
# [8] = second compound 0.00949 µM, first compound 0.1 µM
# [9] = second compound 0.00949 µM, first compound 0.316 µM
# [10] = second compound 0.00949 µM, first compound 1 µM
# [11] = second compound 0.00949 µM, first compound 3.16 µM
# [12] = second compound 0.00949 µM, first compound 10 µM
# [13] = second compound 0.03 µM, first compound 0.0316 µM
# [14] = second compound 0.03 µM, first compound 0.1 µM
# [15] = second compound 0.03 µM, first compound 0.316 µM
# [16] = second compound 0.03 µM, first compound 1 µM
# [17] = second compound 0.03 µM, first compound 3.16 µM
# [18] = second compound 0.03 µM, first compound 10 µM
# [19] = second compound 0.0949 µM, first compound 0.0316 µM
# [20] = second compound 0.0949 µM, first compound 0.1 µM
# [21] = second compound 0.0949 µM, first compound 0.316 µM
# [22] = second compound 0.0949 µM, first compound 1 µM
# [23] = second compound 0.0949 µM, first compound 3.16 µM
# [24] = second compound 0.0949 µM, first compound 10 µM
# [25] = second compound 0.3 µM, first compound 0.0316 µM
# [26] = second compound 0.3 µM, first compound 0.1 µM
# [27] = second compound 0.3 µM, first compound 0.316 µM
# [28] = second compound 0.3 µM, first compound 1 µM
# [29] = second compound 0.3 µM, first compound 3.16 µM
# [30] = second compound 0.3 µM, first compound 10 µM
# 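Note: spheroids exposed to compounds for 7 days before readout.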
# 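Throughout, for viability, T/C: percent of vehicle control viability where 100% = DMSO-treated spheroids.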
compound,measurement,setting,value
CC(C)n1c(=O)n(C)c2cnc3cc(F)c(-c4ccc(OCCCN5CCCCC5)nc4)cc3c21 + CC[C@@]1(O)C(=O)OCc2c1cc1n(c2=O)Cc2cc3c(CN(C)C)c(O)ccc3nc2-1,IC50,second compound 0.003 µM,> 10000 nM
same,IC50,second compound 0.00949 µM,> 10000 nM
same,IC50,second compound 0.03 µM,55.1 nM
same,IC50,second compound 0.0949 µM,< 31.6 nM
same,IC50,second compound 0.3 µM,< 31.6 nM
same,"viability, T/C",[1],83%
same,"viability, T/C",[2],92.7%
same,"viability, T/C",[3],77.3%
same,"viability, T/C",[4],78.8%
same,"viability, T/C",[5],97.9%
same,"viability, T/C",[6],85.5%
same,"viability, T/C",[7],77.2%
same,"viability, T/C",[8],75%
same,"viability, T/C",[9],74.4%
same,"viability, T/C",[10],76.3%
same,"viability, T/C",[11],80.8%
same,"viability, T/C",[12],78.8%
same,"viability, T/C",[13],57.8%
same,"viability, T/C",[14],44.7%
same,"viability, T/C",[15],30.3%
same,"viability, T/C",[16],29.6%
same,"viability, T/C",[17],44.8%
same,"viability, T/C",[18],31.7%
same,"viability, T/C",[19],11.9%
same,"viability, T/C",[20],10.2%
same,"viability, T/C",[21],10.8%
same,"viability, T/C",[22],13.2%
same,"viability, T/C",[23],11.8%
same,"viability, T/C",[24],13.6%
same,"viability, T/C",[25],10.2%
same,"viability, T/C",[26],9.03%
same,"viability, T/C",[27],9.13%
same,"viability, T/C",[28],9.94%
same,"viability, T/C",[29],9.43%
same,"viability, T/C",[30],15%
CC1COCCN1c1cc(-c2ccnn2C)c2ccnc(-c3ccn[nH]3)c2n1 (stereo not given) + CC[C@@]1(O)C(=O)OCc2c1cc1n(c2=O)Cc2cc3c(CN(C)C)c(O)ccc3nc2-1,IC50,second compound 0.003 µM,175 nM
same,IC50,second compound 0.00949 µM,194 nM
same,IC50,second compound 0.03 µM,52.4 nM
same,IC50,second compound 0.0949 µM,< 31.6 nM
same,IC50,second compound 0.3 µM,< 31.6 nM
same,"viability, T/C",[1],83.5%
same,"viability, T/C",[2],62.5%
same,"viability, T/C",[3],36.7%
same,"viability, T/C",[4],27.1%
same,"viability, T/C",[5],26.7%
same,"viability, T/C",[6],23.9%
same,"viability, T/C",[7],60.7%
same,"viability, T/C",[8],66.5%
same,"viability, T/C",[9],39.9%
same,"viability, T/C",[10],31.9%
same,"viability, T/C",[11],29.6%
same,"viability, T/C",[12],23.6%
same,"viability, T/C",[13],55.2%
same,"viability, T/C",[14],44.8%
same,"viability, T/C",[15],32.8%
same,"viability, T/C",[16],28.5%
same,"viability, T/C",[17],27.4%
same,"viability, T/C",[18],23.5%
same,"viability, T/C",[19],26.3%
same,"viability, T/C",[20],26.6%
same,"viability, T/C",[21],28.3%
same,"viability, T/C",[22],27.5%
same,"viability, T/C",[23],26.7%
same,"viability, T/C",[24],21.1%
same,"viability, T/C",[25],35.2%
same,"viability, T/C",[26],34.3%
same,"viability, T/C",[27],39.6%
same,"viability, T/C",[28],37.2%
same,"viability, T/C",[29],29.6%
same,"viability, T/C",[30],27.6%
COc1cc(C)[nH]c(=O)c1CN1CCc2c(Cl)cc(C(OC)C3COC3)c(Cl)c2C1=O (stereo not given) + CC[C@@]1(O)C(=O)OCc2c1cc1n(c2=O)Cc2cc3c(CN(C)C)c(O)ccc3nc2-1,IC50,second compound 0.003 µM,> 10000 nM
same,IC50,second compound 0.00949 µM,> 10000 nM
same,IC50,second compound 0.03 µM,> 10000 nM
same,IC50,second compound 0.0949 µM,< 31.6 nM
same,IC50,second compound 0.3 µM,< 31.6 nM
same,"viability, T/C",[1],106%
same,"viability, T/C",[2],93.3%
same,"viability, T/C",[3],120%
same,"viability, T/C",[4],99%
same,"viability, T/C",[5],95.3%
same,"viability, T/C",[6],96.8%
same,"viability, T/C",[7],105%
same,"viability, T/C",[8],83.2%
same,"viability, T/C",[9],91.6%
same,"viability, T/C",[10],88.7%
same,"viability, T/C",[11],84.7%
same,"viability, T/C",[12],92.3%
same,"viability, T/C",[13],80.4%
same,"viability, T/C",[14],71.1%
same,"viability, T/C",[15],77%
same,"viability, T/C",[16],86.3%
same,"viability, T/C",[17],77.7%
same,"viability, T/C",[18],84.9%
same,"viability, T/C",[19],28.8%
same,"viability, T/C",[20],31.6%
same,"viability, T/C",[21],34.6%
same,"viability, T/C",[22],32.3%
same,"viability, T/C",[23],32.5%
same,"viability, T/C",[24],49.5%
same,"viability, T/C",[25],38.6%
same,"viability, T/C",[26],42.4%
same,"viability, T/C",[27],38.1%
same,"viability, T/C",[28],39.4%
same,"viability, T/C",[29],40.1%
same,"viability, T/C",[30],38.2%
COc1ccc([C@@H](O)c2cc(-c3ncnc4cc(N5CCOCC5)ccc34)c(F)cc2Cl)nn1 + CC[C@@]1(O)C(=O)OCc2c1cc1n(c2=O)Cc2cc3c(CN(C)C)c(O)ccc3nc2-1,IC50,second compound 0.003 µM,5780 nM
same,IC50,second compound 0.00949 µM,3580 nM
same,IC50,second compound 0.03 µM,616 nM
same,IC50,second compound 0.0949 µM,< 31.6 nM
same,IC50,second compound 0.3 µM,< 31.6 nM
same,"viability, T/C",[1],80.6%
same,"viability, T/C",[2],70.4%
same,"viability, T/C",[3],78.3%
same,"viability, T/C",[4],63.9%
same,"viability, T/C",[5],54.4%
same,"viability, T/C",[6],46.6%
same,"viability, T/C",[7],89.9%
same,"viability, T/C",[8],75.9%
same,"viability, T/C",[9],75%
same,"viability, T/C",[10],62.4%
same,"viability, T/C",[11],47.6%
same,"viability, T/C",[12],43.3%
same,"viability, T/C",[13],71.5%
same,"viability, T/C",[14],57.8%
same,"viability, T/C",[15],53.9%
same,"viability, T/C",[16],49.5%
same,"viability, T/C",[17],41.8%
same,"viability, T/C",[18],35.3%
same,"viability, T/C",[19],24.1%
same,"viability, T/C",[20],30.7%
same,"viability, T/C",[21],30.3%
same,"viability, T/C",[22],34%
same,"viability, T/C",[23],36.3%
same,"viability, T/C",[24],28.4%
same,"viability, T/C",[25],32.9%
same,"viability, T/C",[26],36.8%
same,"viability, T/C",[27],35.6%
same,"viability, T/C",[28],42.1%
same,"viability, T/C",[29],25.9%
same,"viability, T/C",[30],8.42%
[2H]c1nc(C)nc([2H])c1-c1cc(NC[C@@H](C)c2cccc3c(C(=O)NC)ccnc23)ncn1 + CC[C@@]1(O)C(=O)OCc2c1cc1n(c2=O)Cc2cc3c(CN(C)C)c(O)ccc3nc2-1,IC50,second compound 0.003 µM,> 10000 nM
same,IC50,second compound 0.00949 µM,> 10000 nM
same,IC50,second compound 0.03 µM,> 10000 nM
same,IC50,second compound 0.0949 µM,< 31.6 nM
same,IC50,second compound 0.3 µM,< 31.6 nM
same,"viability, T/C",[1],100%
same,"viability, T/C",[2],132%
same,"viability, T/C",[3],112%
same,"viability, T/C",[4],92.2%
same,"viability, T/C",[5],92.3%
same,"viability, T/C",[6],78%
same,"viability, T/C",[7],97.6%
same,"viability, T/C",[8],81.4%
same,"viability, T/C",[9],103%
same,"viability, T/C",[10],95.8%
same,"viability, T/C",[11],97.2%
same,"viability, T/C",[12],78.2%
same,"viability, T/C",[13],69.3%
same,"viability, T/C",[14],72.3%
same,"viability, T/C",[15],66.6%
same,"viability, T/C",[16],65.6%
same,"viability, T/C",[17],64.7%
same,"viability, T/C",[18],76%
same,"viability, T/C",[19],28.3%
same,"viability, T/C",[20],26.2%
same,"viability, T/C",[21],27.4%
same,"viability, T/C",[22],25%
same,"viability, T/C",[23],32.4%
same,"viability, T/C",[24],29.9%
same,"viability, T/C",[25],37.1%
same,"viability, T/C",[26],32.6%
same,"viability, T/C",[27],31.5%
same,"viability, T/C",[28],40.6%
same,"viability, T/C",[29],33.2%
same,"viability, T/C",[30],36.4%
